Series [1] in a line: Serum anastrozole by liquid chromatography-tandem mass spectrometry. Type of series: in vivo, human. The following applies: for concentration at 3 month / concentration at 1 month: human, serum. How it is done: FAI is calculated from a formula where the serum measurement of total testosterone and sex hormone binding globulin are calculated by radio immunoassay. Aromatase inhibitor serum level is determined by liquid chromatography-tandem mass spectrometry.
All thirty having serum drawn at baseline and at 1 year for serum testosterone and sex hormone binding globulin so that free-androgen index could be calculated (FAI=the ratio of the total testosterone level divided by the sex hormone binding globulin level, and then multiplied by a 100 to give a percentage).

Series [2] has as its system mammographic breast density. The following applies: background statement; cited from earlier work.
For series [3] the following is noted: cited from earlier work.

Like-named read-outs stand apart in the source and are kept apart here.

On to `CC(C)(C#N)c1cc(Cn2cncn2)cc(C(C)(C)C#N)c1` [anastrozole, 2,2′-[5-(1H-1,2,4-triazol-1-ylmethyl)-1,3-phenylene]bis(2-methylpropanenitrile)], for which the “Serum anastrazole (ng/ml) End 1st year 3 month trough, median (range)” value in series [1] (Example 2, 30 patients, s.c. testosterone and anastrozole at 4 months intervals) was 32 (22-39) ng/ml. The concentration at 3 month came out at 27 ng/mL in series [1] (female, sc, Example 2, 30 patients, s.c. testosterone and anastrozole at 4 months intervals, read-out: Serum anastrazole (ng/ml) 1st 3 month trough, median (range)); 28 ng/mL in series [1] (sc, Serum anastrozole, Example 1, Pellet 1 (testosterone 59 mg, anastrozole 2.75 mg, s.c.), 3 month); 25 ng/mL in series [1] (subcutaneous, Serum anastrozole, Example 1, Pellet 2 (testosterone 71 mg, anastrozole 2.75 mg), 3 month); 28 ng/mL in series [1] (subcutaneous, Serum anastrozole, Example 1, Pellet 3 (testosterone 71 mg, anastrozole 2.75 mg), 3 month). In addition, the concentration at 1 month in series [1] (sc, Serum anastrozole, Example 1, Pellet 1 (testosterone 59 mg, anastrozole 2.75 mg, s.c.)) came to 38 ng/mL; in series [1] (subcutaneous, Serum anastrozole, Example 1, Pellet 2 (testosterone 71 mg, anastrozole 2.75 mg)) it was 35 ng/mL; in series [1] (subcutaneous, Serum anastrozole, Example 1, Pellet 3 (testosterone 71 mg, anastrozole 2.75 mg)) it was 38 ng/mL.
On to `CC/C(=C(\c1ccccc1)c1ccc(OCCN(C)C)cc1)c1ccccc1` [tamoxifen], for which, in series [2], the “Effect on mammographic breast density” value was “has been shown to reduce mammographic breast density”.
Take `CCCCCCCCCCC(=O)O[C@H]1CC[C@H]2[C@@H]3CCC4=CC(=O)CC[C@]4(C)[C@H]3CC[C@]12C` [testosterone undecanoate]: in series [3] (by-passes the liver via the lymphatic system), the Oral bioavailability result is listed as “orally bioavailable”.
Regarding `C[C@]12CC[C@H]3[C@@H](CCC4=CC(=O)CC[C@@]43C)[C@@H]1CC[C@@H]2O` [testosterone], the “Fraction broken down in the liver as it is absorbed from the gut” value in series [3] (oral delivery) is 80-90%. The “Fraction broken down in the intestines by aromatase and other metabolic pathways” value in series [3] (oral) is on record as “approximately 85%”.

Source of the values: patent US10525063B2, “Methods of reducing mammographic breast density and/or breast cancer risk” (HAVAH THERAPEUTICS PTY LTD., priority 2014, dated 2020).
